Activity calls are given as the source filed them. How the calls were made is not given here.
Test system: CCRIS mutagenicity, Ames/micronucleus/aberration tests
Assay: CCRIS mutagenicity studies
[1] = Test System: AMES SALMONELLA TYPHIMURIUM, Strain/Indicator: TA98, Metabolic Activation: HAMSTER, LIVER, S-9, AROCLOR 1254, Method: STANDARD PLATE
[2] = Test System: AMES SALMONELLA TYPHIMURIUM, Strain/Indicator: TA98, Metabolic Activation: NONE, Method: PREINCUBATION
[3] = Test System: AMES SALMONELLA TYPHIMURIUM, Strain/Indicator: TA98, Metabolic Activation: NONE, Method: STANDARD PLATE
[4] = Test System: AMES SALMONELLA TYPHIMURIUM, Strain/Indicator: TA98, Metabolic Activation: RAT, LIVER, S-9, AROCLOR 1254, Method: STANDARD PLATE
[5] = Test System: AMES SALMONELLA TYPHIMURIUM, Strain/Indicator: TA100, Metabolic Activation: HAMSTER, LIVER, S-9, AROCLOR 1254, Method: STANDARD PLATE
[6] = Test System: AMES SALMONELLA TYPHIMURIUM, Strain/Indicator: TA100, Metabolic Activation: NONE, Method: PREINCUBATION
[7] = Test System: AMES SALMONELLA TYPHIMURIUM, Strain/Indicator: TA100, Metabolic Activation: NONE, Method: STANDARD PLATE
[8] = Test System: AMES SALMONELLA TYPHIMURIUM, Strain/Indicator: TA100, Metabolic Activation: RAT, LIVER, S-9, AROCLOR 1254, Method: STANDARD PLATE
[9] = Test System: AMES SALMONELLA TYPHIMURIUM, Strain/Indicator: TA1535, Metabolic Activation: NONE, Method: PREINCUBATION
[10] = Test System: AMES SALMONELLA TYPHIMURIUM, Strain/Indicator: TA1537, Metabolic Activation: NONE, Method: PREINCUBATION
[11] = Test System: MOUSE LYMPHOMA, Strain/Indicator: L5178Y (TK+/TK-), Metabolic Activation: NONE, Method: SUSPENSION/PLATE

CC(=O)OC(C)=O
mutagenic call [1]: inactive; negative | mutagenic call [2]: inactive; negative | mutagenic call [3]: inactive; negative | mutagenic call [4]: inactive; negative | mutagenic call (Test System: AMES SALMONELLA TYPHIMURIUM, Strain/Indicator: TA98, Metabolic Activation: RAT, LIVER, S-9, SODIUM PHENOBARBITAL AND 5,6-BENZOFLAVONE, Method: PREINCUBATION): inactive; negative | mutagenic call [5]: inactive; negative | mutagenic call [6]: inactive; negative | mutagenic call [7]: inactive; negative | mutagenic call [8]: inactive; negative | mutagenic call (Test System: AMES SALMONELLA TYPHIMURIUM, Strain/Indicator: TA100, Metabolic Activation: RAT, LIVER, S-9, SODIUM PHENOBARBITAL AND 5,6-BENZOFLAVONE, Method: PREINCUBATION): inactive; negative | mutagenic call (Test System: AMES SALMONELLA TYPHIMURIUM, Strain/Indicator: TA102, Metabolic Activation: NONE, Method: PREINCUBATION): inactive; negative | mutagenic call (Test System: AMES SALMONELLA TYPHIMURIUM, Strain/Indicator: TA102, Metabolic Activation: RAT, LIVER, S-9, SODIUM PHENOBARBITAL AND 5,6-BENZOFLAVONE, Method: PREINCUBATION): inactive; negative | mutagenic call (Test System: AMES SALMONELLA TYPHIMURIUM, Strain/Indicator: TA104, Metabolic Activation: NONE, Method: PREINCUBATION): inactive; negative | mutagenic call (Test System: AMES SALMONELLA TYPHIMURIUM, Strain/Indicator: TA104, Metabolic Activation: RAT, LIVER, S-9, SODIUM PHENOBARBITAL AND 5,6-BENZOFLAVONE, Method: PREINCUBATION): inactive; negative | mutagenic call (Test System: AMES SALMONELLA TYPHIMURIUM, Strain/Indicator: TA1535, Metabolic Activation: HAMSTER, LIVER, S-9, AROCLOR 1254, Method: STANDARD PLATE): inactive; negative | mutagenic call [9]: inactive; negative | mutagenic call (Test System: AMES SALMONELLA TYPHIMURIUM, Strain/Indicator: TA1535, Metabolic Activation: NONE, Method: STANDARD PLATE): inactive; negative | mutagenic call (Test System: AMES SALMONELLA TYPHIMURIUM, Strain/Indicator: TA1535, Metabolic Activation: RAT, LIVER, S-9, AROCLOR 1254, Method: STANDARD PLATE): inactive; negative | mutagenic call (Test System: AMES SALMONELLA TYPHIMURIUM, Strain/Indicator: TA1535, Metabolic Activation: RAT, LIVER, S-9, SODIUM PHENOBARBITAL AND 5,6-BENZOFLAVONE, Method: PREINCUBATION): inactive; negative | mutagenic call (Test System: AMES SALMONELLA TYPHIMURIUM, Strain/Indicator: TA1537, Metabolic Activation: HAMSTER, LIVER, S-9, AROCLOR 1254, Method: STANDARD PLATE): inactive; negative | mutagenic call [10]: inactive; negative | mutagenic call (Test System: AMES SALMONELLA TYPHIMURIUM, Strain/Indicator: TA1537, Metabolic Activation: NONE, Method: STANDARD PLATE): inactive; negative | mutagenic call (Test System: AMES SALMONELLA TYPHIMURIUM, Strain/Indicator: TA1537, Metabolic Activation: RAT, LIVER, S-9, AROCLOR 1254, Method: STANDARD PLATE): inactive; negative | mutagenic call (Test System: AMES SALMONELLA TYPHIMURIUM, Strain/Indicator: TA1537, Metabolic Activation: RAT, LIVER, S-9, SODIUM PHENOBARBITAL AND 5,6-BENZOFLAVONE, Method: PREINCUBATION): inactive; negative | mutagenic call (Test System: AMES SALMONELLA TYPHIMURIUM, Strain/Indicator: TA1538, Metabolic Activation: HAMSTER, LIVER, S-9, AROCLOR 1254, Method: STANDARD PLATE): inactive; negative | mutagenic call (Test System: AMES SALMONELLA TYPHIMURIUM, Strain/Indicator: TA1538, Metabolic Activation: NONE, Method: STANDARD PLATE): inactive; negative | mutagenic call (Test System: AMES SALMONELLA TYPHIMURIUM, Strain/Indicator: TA1538, Metabolic Activation: RAT, LIVER, S-9, AROCLOR 1254, Method: STANDARD PLATE): inactive; negative | mutagenic call (Test System: E. COLI, Strain/Indicator: WP2UVRA/PKM101, Metabolic Activation: NONE, Method: PREINCUBATION): inactive; negative | mutagenic call (Test System: E. COLI, Strain/Indicator: WP2UVRA/PKM101, Metabolic Activation: RAT, LIVER, S-9, SODIUM PHENOBARBITAL AND 5,6-BENZOFLAVONE, Method: PREINCUBATION): inactive; negative | mutagenic call (Test System: E. COLI, Strain/Indicator: WP2UVRA, Metabolic Activation: NONE, Method: PREINCUBATION): inactive; negative | mutagenic call (Test System: E. COLI, Strain/Indicator: WP2UVRA, Metabolic Activation: RAT, LIVER, S-9, SODIUM PHENOBARBITAL AND 5,6-BENZOFLAVONE, Method: PREINCUBATION): inactive; negative | mutagenic call [11]: inactive; negative. reevaluation of results: inconclusive | mutagenic call (Test System: Mouse lymphoma, Strain/Indicator: L5178Y (tk+/tk-), Metabolic Activation: Rat, Liver, S-9, Aroclor 1254, Method: Suspension/plate): inactive; inconclusive (previous evaluation negative)

CCCOc1ccccc1C(=O)NOC(C)=O
mutagenic call [7]: active; positive | mutagenic call (Test System: AMES SALMONELLA TYPHIMURIUM, Strain/Indicator: TA100, Metabolic Activation: RAT, S-9, AROCLOR, Method: STANDARD PLATE): active; positive

O=C1CCCc2c1ccc1c([N+](=O)[O-])c3ccccc3cc21
mutagenic call (Test System: AMES SALMONELLA TYPHIMURIUM, Strain/Indicator: TA98, Metabolic Activation: NONE): inactive; negative | mutagenic call (Test System: AMES SALMONELLA TYPHIMURIUM, Strain/Indicator: TA98, Metabolic Activation: S-9): inactive; negative | mutagenic call (Test System: AMES SALMONELLA TYPHIMURIUM, Strain/Indicator: TA100, Metabolic Activation: NONE): inactive; negative | mutagenic call (Test System: AMES SALMONELLA TYPHIMURIUM, Strain/Indicator: TA100, Metabolic Activation: S-9): inactive; negative

O=C(O)Cc1ccccc1[N+](=O)[O-]
mutagenic call [2]: inactive; negative | mutagenic call [6]: active; positive | mutagenic call [9]: active; positive | mutagenic call [10]: inactive; negative | mutagenic call (Test System: AMES SALMONELLA TYPHIMURIUM, Strain/Indicator: TA1538, Metabolic Activation: NONE, Method: PREINCUBATION): active; positive

N[C@@H](CCCCN/C=C/C=O)C(=O)O
mutagenic call (Test System: AMES SALMONELLA TYPHIMURIUM, Strain/Indicator: HISD3052, Metabolic Activation: NONE, Method: STANDARD PLATE): active; positive

Nc1ccn([C@H]2CC[C@@H](CO)O2)c(=O)n1
mutagenic call [1]: inactive; negative | mutagenic call [3]: inactive; negative | mutagenic call [4]: inactive; negative | mutagenic call [5]: inactive; negative | mutagenic call [7]: inactive; negative | mutagenic call [8]: inactive; negative | mutagenic call (Test System: MOUSE LYMPHOMA, Strain/Indicator: L5178Y (TK+/TK-), Metabolic Activation: NONE, Method: MICROWELL): inactive; negative | mutagenic call [11]: inactive; negative. reevaluation of results: negative | mutagenic call (Test System: MOUSE LYMPHOMA, Strain/Indicator: L5178Y (TK+/TK-), Metabolic Activation: RAT, LIVER, S-9, AROCLOR 1254, Method: SUSPENSION/PLATE): inactive; negative. reevaluation of results: negative | mutagenic call (Test System: MOUSE LYMPHOMA, Strain/Indicator: L5178Y (TK+/TK-), Metabolic Activation: S-9, Method: MICROWELL): inactive; negative

From PubChem BioAssay AID1259407 (Chemical Carcinogenesis Research Information System (CCRIS), 2018)
